The data set is described as follows: Solubility of sirolimus in solvents and dispersion media. It counts as physicochemical. How it is done: Solution 524 is a homogeneous mixture in which therapeutic substance 112 dissolves within a solvent or a solvent mixture. In one embodiment, solution 524 includes a high-capacity solvent 528 which is an organic solvent that has a high capacity to dissolve therapeutic substance 112. High capacity as utilized herein is defined as an ability to dissolve therapeutic substance 112 at concentrations greater than 500 mg of substance per milliliter of solvent. Examples of high capacity drug dissolving solvents for sirolimus and similar substances include but are not limited to tetrahydrofuran (THF), di-chloromethane (DCM), chloroform, and di-methyl-sulfoxide (DMSO). In addition to the high-capacity solvent, solution 524 may include an excipient 526 in order to assist in drug elution. In one embodiment, excipient 526 may be a surfactant such as but not limited to sorbitan fatty acid esters such as sorbitan monooleate and sorbitan monolaurate, polysorbates such as polysorbate 20, polysorbate 60, and polysorbate 80, cyclodextrins such as 2-hydroxypropyl-beta-cyclodextrin and 2,6-di-O-methyl-beta-cyclodextrin, sodium dodecyl sulfate, octyl glucoside, and low molecular weight poly(ethylene glycol)s. In another embodiment, excipient 526 may be a hydrophilic agent such as but not limited to salts such as sodium chloride and other materials such as urea, citric acid, and ascorbic acid. In yet another embodiment, excipient 526 may be a stabilizer such as but not limited to butylated hydroxytoluene (BHT). Depending on the desired drug load, a low capacity solvent can also be chosen for its reduced solubility of therapeutic substance 112. Low capacity is defined as an ability to dissolve therapeutic substance 112 at concentrations typically below 500 mg of drug per milliliter solvent. Examples of low capacity drug dissolving solvents for sirolimus and similar substances include but are not limited to methanol, ethanol, propanol, acetonitrile, ethyl lactate, acetone, and solvent mixtures like tetrahydrafuran/water (9:1 weight ratio). […]

Molecules are shown by their SMILES.

On to `CO[C@H]1C[C@@H]2CC[C@@H](C)[C@@](O)(O2)C(=O)C(=O)N2CCCC[C@H]2C(=O)O[C@H]([C@H](C)C[C@@H]2CC[C@@H](O)[C@H](OC)C2)CC(=O)[C@H](C)/C=C(\C)[C@@H](O)[C@@H](OC)C(=O)[C@H](C)C[C@H](C)/C=C/C=C/C=C/1C` [sirolimus], for which the “solubility in supercritical carbon dioxide” value (SCCO2) is on record as “low capacity”. For the same compound, the solubility in hexane entry (hexane) was “insoluble”. For the setting “water”, the solubility in water result was “insoluble”.

The values above are taken from patent US20120067455A1, “Apparatus and Methods for Loading a Drug Eluting Medical Device” (Medtronic Vascular, Inc., priority 2010, published 2012).
